# Measurements: patent publication US20120115827A1, “3-AMINOBENZAMIDE COMPOUNDS AND VANILLOID RECEPTOR SUBTYPE 1 (VR1) INHIBITORS” (Japan Tobacco Inc., priority 2004, published 2012)
# Structures can show the parent of a compound that is named as a salt.
# Target: T1, human VR1 (Homo sapiens, UniProt Q8NER1)
# T1 construct: expressed in transfected cells
# Test: Inhibition of Ca2+ entry in cells caused by proton (VR1 agonist)
# Format: cell-based
# Conditions: Rat glioma (C6BU1) cells stably expressing human VR1; proton stimulation to pH 5.5; Fura 2-AM fluorescence; read-out: In vitro IC50
# Method: The assay for evaluation of VR1 inhibition by the inventive compounds will be described below. The assay was intended to evaluate in vitro inhibition of Ca^2+ entry in cells caused by proton, one of the VR1 agonists.
# Rat glioma (C6BU1) cells stably expressing human VR1 were suspended in 20 mM MES buffer (at pH 6.8, contg. 20 mM 2-morpholinoethanesulfonate (referred to as MES hereinafter), 115 mM NaCl, 5 mM KCl, 1 mM MgCl2 and 14 mM D-glucose) to make a cell density of 1×10^6 cells/mL. A fluorescent dye, Fura 2-AM solution (Dojindo Corporate, Cat. No. 343-05401) was added to the suspension to make a 5 μM concentration thereof. Further, Pluronic F-127 (Wako Pure Chemical Industries, Ltd., Cat. No. P6866) was added to make a 0.1% content thereof. Then, the suspension was incubated at 37° C. for 30 min. The cells were harvested and washed three times with 20 mM MES buffer. The cells were suspended again to make a cell density of 5×10^5 cells/mL. A 500-μL portion of the suspension was taken with a cuvette (MC MEDICAL, INC., Cat. No. SSR3121), to which […] MES buffer containing 250 mM CaCl2 was added to incorporate Ca^2+ into the cells. At the same time, 5 μL of a test compound solution (in a range of 100 μM to 10 nM in DMSO) was also added to provide a final concentration thereof in a range of 1 μM to 0.1 nM. Alternatively, 5 μl of DMSO was added as control to provide a final concentration of 1% DMSO. The suspension was set in an intracellular ionometer (CAF-110; JASCO) 10 min after those additions. The cells were stimulated with protons by addition of 60 μL of 20 mM MES buffer at pH 1.1 to the suspension to set its pH at 5.5. The activity of the test compound was determined as a difference between the minimum of fluorescence intensity before agonist stimulation and its maximum after the stimulation. The value of IC50 was derived from percentage of inhibition by the test compound compared with the control.
# T1 sequence (Q8NER1 whole entry): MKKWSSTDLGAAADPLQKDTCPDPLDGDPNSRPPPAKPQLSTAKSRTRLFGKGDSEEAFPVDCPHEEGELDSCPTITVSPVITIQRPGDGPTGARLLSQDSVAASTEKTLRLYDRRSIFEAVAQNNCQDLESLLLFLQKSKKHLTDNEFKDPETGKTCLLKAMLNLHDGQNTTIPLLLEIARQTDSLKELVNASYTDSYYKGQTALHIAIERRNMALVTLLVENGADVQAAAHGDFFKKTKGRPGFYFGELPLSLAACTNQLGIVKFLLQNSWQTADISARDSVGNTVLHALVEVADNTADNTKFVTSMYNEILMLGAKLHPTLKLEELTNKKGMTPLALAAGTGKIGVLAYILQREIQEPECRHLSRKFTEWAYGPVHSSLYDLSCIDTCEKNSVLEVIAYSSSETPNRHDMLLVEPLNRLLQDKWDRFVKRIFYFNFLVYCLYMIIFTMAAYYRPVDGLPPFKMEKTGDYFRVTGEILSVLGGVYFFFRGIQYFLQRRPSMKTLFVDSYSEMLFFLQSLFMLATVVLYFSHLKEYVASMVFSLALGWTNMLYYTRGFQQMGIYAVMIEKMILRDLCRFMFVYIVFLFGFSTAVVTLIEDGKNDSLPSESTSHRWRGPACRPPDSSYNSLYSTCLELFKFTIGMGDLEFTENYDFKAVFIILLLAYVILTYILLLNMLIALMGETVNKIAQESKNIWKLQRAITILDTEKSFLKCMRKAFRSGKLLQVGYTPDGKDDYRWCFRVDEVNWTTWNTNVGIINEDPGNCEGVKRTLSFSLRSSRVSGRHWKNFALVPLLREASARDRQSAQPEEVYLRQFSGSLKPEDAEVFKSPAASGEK
row,Compound,IC50 [nM]
1,"CCOC(=O)c1cnc(N(C)c2cc(C(=O)Nc3ccc(C(C)(C)C)cc3)ccc2Cl)c(Cl)c1 [Example 73, Ethyl 6-{[5-(4-tert-butylphenylcarbamoyl)-2-chlorophenyl]-methyl-amino}-5-chloronicotinate]",100 to 1000
2,"CN(C)C(=O)COc1ccc(C(=O)Nc2ccc(C(C)(C)C)cc2)cc1N(C)c1ncccc1Cl [Example 22, N-(4-tert-butylphenyl)-3-[N-(3-chloropyridin-2-yl)-N-methyl-amino]-4-(N,N-dimethylcarbamoylmethyl)oxybenzamide]",100 to 1000
3,"Cc1ccc(C(=O)Nc2ccc(OC(F)(F)F)cc2)cc1N(CC(N)=O)c1ncccc1Cl [Example 64, 3-[N-(3-chloropyridin-2-yl)-N-(carbamoylmethyl)amino]-4-methyl-N-(4-trifluoromethoxyphenyl)-benzamide]",≤ 100
4,"CN(c1cccc(C(=O)Nc2ccc(C(C)(C)C)cc2)c1OCCO)c1ncccc1Cl [Example 27, N-(4-tert-butylphenyl)-3-[N-(3-chloropyridin-2-yl)-N-methyl-amino]-2-(2-hydroxyethyl)oxybenzamide]",≤ 100
5,"CN(c1cccc(C(=O)Nc2ccc(C(C)(C)C)cc2)c1O)c1ncccc1Cl [Example 25, N-(4-tert-butylphenyl)-3-[N-(3-chloropyridin-2-yl)-N-methyl]amino-2-hydroxybenzamide]",100 to 1000
6,"CC(C)c1ccc(NC(=O)c2ccc(Cl)c(N(CCO)c3ncccc3Cl)c2)cc1 [Example 37, 4-chloro-3-[N-(3-chloropyridin-2-yl)-N-(2-hydroxyethyl)amino]-N-(4-isopropylphenyl)-benzamide]",≤ 100
7,"CN(c1cccc(C(=O)Nc2ccc(C(C)(C)C)cc2)c1)c1ncccc1Cl [Example 1, N-(4-tert-butylphenyl)-3-[N-(3-chloropyridin-2-yl)-N-methyl-amino]benzamide, hydrochloride salt]",≤ 100
8,"NC(=O)CN(c1cc(C(=O)Nc2ccc(C(F)(F)F)cc2)ccc1Cl)c1ncccc1Cl [Example 59, 4-chloro-3-[N-(3-chloropyridin-2-yl)-N-(carbamoylmethyl)amino]-N-(4-trifluoromethylphenyl)-benzamide]",≤ 100

# Next, values leading:
row,IC50 [nM],Compound
1,≤ 100,"CN(c1cc(C(=O)Nc2ccc(C(C)(C)C)cc2)ccc1Cl)c1ncc(C(N)=O)cc1Cl [Example 75, 6-{[5-(4-tert-butylphenylcarbamoyl)-2-chlorophenyl]-methyl-amino}-5-chloronicotinamide]"
2,≤ 100,"CN(c1cc(C(=O)Nc2ccc(C(C)(C)C)cc2)ccc1F)c1ncccc1Cl [Example 9, N-(4-tert-butylphenyl)-3-[N-(3-chloropyridin-2-yl)-N-methyl-amino]-4-fluorobenzamide]"
3,≤ 100,"CN(c1cc(C(=O)Nc2ccc(C(C)(C)C)cc2)ccc1-c1ccccc1)c1ncccc1Cl [Example 8, N-(4-tert-butylphenyl)-3-[N-(3-chloropyridin-2-yl)-N-methyl-amino]-4-phenylbenzamide]"
4,≤ 100,"COc1ccc(C(=O)Nc2ccc(C(C)(C)C)cc2)cc1N(CCO)c1ncccc1Cl [Example 28, N-(4-tert-butylphenyl)-3-[N-(3-chloropyridin-2-yl)-N-(2-hydroxyethyl)]amino-4-methoxybenzamide]"
